What was measured:
[1] = system: HIV-IIIb; assay: Test A: Antiviral assay in MT4 cells; type: cell-based, HIV-1; details: percent inhibition of virus-induced cell killing, from dose response curve at 2 uM drug; MT-4 cells infected with HIV-IIIb, 5 days, CellTiter-Glo
[2] = system: MT-4 cells; assay: in vitro; details: uninfected MT-4 cells, same protocol as Test A, 5 days, CellTiter-Glo
Method in brief: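 Cytoprotection read-out: CellTiter-Glo chemiluminescence after 5 days at 37 °C of HIV-IIIb-infected MT-4 cells (m.o.i. 0.003) with compound in 10-point 3-fold dilutions, quadruplicate, 10% FBS. Cytotoxicity (CC50) measured identically without virus.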

Molecule: CCC(C(=O)N[C@@H](Cc1cc(F)cc(F)c1)c1ncccc1-c1ccc(F)c(C(N)=O)c1)n1cc(C(C)=O)c2ccccc21 (stereo partly drawn) [Example 554, 5-(2-((1S)-1-(2-(3-acetyl-1H-indol-1-yl)butanamido)-2-(3,5-difluorophenyl)ethyl)pyridin-3-yl)-2-fluorobenzamide]
- % inhibition at 2 μM [1]: 63%
- CC50 [2]: 48.9 µM

Molecule: (S)-5-(2-(1-(2-(5-(difluoromethyl)-3-phenyl-1H-pyrazol-1-yl)acetamido)-2-(3,5-difluorophenyl)ethyl)pyridin-3-yl)-2-fluorobenzamide [Example 240C]
- % inhibition at 2 μM [1]: 0%
- CC50 [2]: 34.9 µM

Molecule: CCC(C(=O)N[C@@H](Cc1cc(F)cc(F)c1)c1ncccc1-c1ccc(F)c(C(N)=O)c1)n1nc(C(F)(F)F)c2c1CCCC2 (single isomer, unassigned) [Example 531]
- % inhibition at 2 μM [1]: 98%
- CC50 [2]: 7.4 µM
